Values after ≈ are worked out from the molar mass of the structure shown.

Experimental findings from ChEMBL document CHEMBL1141014, “Design and synthesis of a bis(cycloisodityrosine) analogue of RA-VII, an antitumor bicyclic hexapeptide” (Bioorg Med Chem Lett, 2008) are described below.

This assay concerns P388. Kind of assay: Cytotoxicity against mouse P388 cells. The class given is functional, cell-based.

Turning to `COc1ccc(C[C@H]2C(=O)N[C@@H](C)C(=O)N(C)[C@H]3Cc4ccc(cc4)Oc4cc(ccc4OC)C[C@@H](C(=O)N[C@H](C)C(=O)N[C@@H](C)C(=O)N2C)N(C)C3=O)cc1`, the IC50 (usually the concentration at which inhibition is half-maximal) was determined as 0.0015 µg/mL (≈ 0.00195 µM).

For the compound `COc1ccc2cc1Oc1ccc(cc1)C[C@@H]1NC(=O)[C@@H](C)NC(=O)[C@@H]3Cc4ccc(OC)c(c4)Oc4ccc(cc4)C[C@@H](C(=O)N3C)N(C)C(=O)[C@H](C)NC(=O)[C@H](C2)NC1=O`, it took 7.5 µg/mL (≈ 8.86 µM) to reach half-maximal inhibition (IC50). This IC50 is about 5000-fold higher than that of the compound before.
